From US8143393B2, “Substituted 4-amino-pyrrolotriazine derivatives useful for treating hyper-proliferative disorders and diseases associated with angiogenesis” (Bayer HealthCare LLC, priority 2005, dated 2012) come the findings set out here.

T1 sequence (P11362 22-822): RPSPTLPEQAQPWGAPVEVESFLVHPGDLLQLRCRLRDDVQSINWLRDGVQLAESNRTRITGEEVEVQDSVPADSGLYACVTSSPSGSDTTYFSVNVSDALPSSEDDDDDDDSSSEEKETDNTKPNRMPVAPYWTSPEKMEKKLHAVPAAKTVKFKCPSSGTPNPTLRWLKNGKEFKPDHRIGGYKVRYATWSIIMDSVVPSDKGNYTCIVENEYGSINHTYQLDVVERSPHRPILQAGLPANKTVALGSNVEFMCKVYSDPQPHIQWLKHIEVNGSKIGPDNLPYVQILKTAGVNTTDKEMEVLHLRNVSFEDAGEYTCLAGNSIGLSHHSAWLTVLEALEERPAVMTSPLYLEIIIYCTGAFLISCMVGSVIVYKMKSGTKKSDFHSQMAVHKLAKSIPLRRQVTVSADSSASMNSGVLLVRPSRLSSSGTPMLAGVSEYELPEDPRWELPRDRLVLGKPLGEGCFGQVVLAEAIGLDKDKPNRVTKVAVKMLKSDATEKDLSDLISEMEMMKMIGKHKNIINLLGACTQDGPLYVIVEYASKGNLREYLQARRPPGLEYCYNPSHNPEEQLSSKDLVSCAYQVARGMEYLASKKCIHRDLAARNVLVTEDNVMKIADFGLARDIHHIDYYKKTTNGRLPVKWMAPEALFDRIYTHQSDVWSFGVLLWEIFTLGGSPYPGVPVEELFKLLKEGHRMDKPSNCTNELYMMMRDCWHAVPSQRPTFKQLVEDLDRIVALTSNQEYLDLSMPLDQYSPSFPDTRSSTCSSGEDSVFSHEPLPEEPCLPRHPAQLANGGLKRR

This assay has as its target T1, FGFR-1 (Homo sapiens, UniProt P11362).
T1 construct: GST; made in house
The experiment in a line: FGFR-1 TR-FRET biochemical assay. The following applies: 0.6 uM ATP, 5 nM FGFR1-GST; bounds given in nM. A digest of the protocol: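 FGFR1-GST (5 nM) was incubated with poly GT-biotin (25 nM) and 0.6 uM ATP in HEPES pH 7.5/MgCl2 with 1% DMSO for 1 h at room temperature. Phosphorylation was read by LANCE TR-FRET (Eu-anti-pTyr/SA-APC, 665/615 ratio). Percent inhibition was background-corrected against no-ATP wells, with final compound concentrations of 10 μM–0.128 nM.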
For orientation: TR-FRET usually uses a lanthanide donor and a delayed reading to cut background.
`CC(=O)N1CCC(c2cc(-c3ccc(NC(=O)Nc4cc(C(F)(F)F)ccc4F)c(F)c3)c3c(N)ncnn23)C1` (centres unmarked) [Example 202, N-{4-[7-(1-acetylpyrrolidin-3-yl)-4-aminopyrrolo[2,1-f][1,2,4]triazin-5-yl]-2-fluorophenyl}-N′-[2-fluoro-5-(trifluoromethyl)phenyl]urea] gave a concentration for half-maximal inhibition (IC50) of under 10 nM. The result for `CN(C)C(=O)N1CCC(c2cc(-c3ccc(NC(=O)Nc4cc(C(F)(F)F)ccc4F)c(F)c3)c3c(N)ncnn23)C1` (centres unmarked) [Example 203, 3-{4-amino-5-[3-fluoro-4-({[2-fluoro-5-(trifluoromethyl)phenyl]carbamoyl}amino)phenyl]pyrrolo[2,1-f][1,2,4]triazin-7-yl}-N,N-dimethylpyrrolidine-1-carboxamide] reads under 10 nM; that for `Nc1ncnn2c(C3CCN(C(=O)CO)C3)cc(-c3ccc(NC(=O)Nc4cc(C(F)(F)F)ccc4F)c(F)c3)c12` (centres unmarked) [Example 204, N-{4-[4-amino-7-(1-glycoloylpyrrolidin-3-yl)pyrrolo[2,1-f][1,2,4]triazin-5-yl]-2-fluorophenyl}-N′-[2-fluoro-5-(trifluoromethyl)phenyl]urea], under 10 nM. To `CC(=O)N1CCC(c2cc(-c3ccc(NC(=O)Nc4cc(C(F)(F)F)ccn4)c(F)c3)c3c(N)ncnn23)C1` (centres unmarked) [Example 205, N-{4-[7-(1-acetylpyrrolidin-3-yl)-4-aminopyrrolo[2,1-f][1,2,4]triazin-5-yl]-2-fluorophenyl}-N′-[4-(trifluoromethyl)pyridin-2-yl]urea] belongs under 10 nM; to `Nc1ncnn2c(C3CCNC3)cc(-c3ccc(NC(=O)Nc4cc(C(F)(F)F)ccc4F)cc3)c12` (centres unmarked) [Example 206, 1-[4-(4-amino-7-pyrrolidin-3-ylpyrrolo[2,1-f][1,2,4]triazin-5-yl)phenyl]-3-[2-fluoro-5-(trifluoromethyl)phenyl]urea], under 10 nM.

As for `CC(C)(C)OC(=O)N1CCC(c2cc(-c3ccc(NC(=O)Nc4cc(C(F)(F)F)ccn4)c(F)c3)c3c(N)ncnn23)C1` (centres unmarked) [Example 208, tert-butyl 3-{4-amino-5-[3-fluoro-4-({[4-(trifluoromethyl)pyridin-2-yl]carbamoyl}amino)phenyl]pyrrolo[2,1-f][1,2,4]triazin-7-yl}pyrrolidine-1-carboxylate], the IC50 lay within 10 to 100 nM.

For `CNC(=O)N1CCC(c2cc(-c3ccc(NC(=O)Nc4cc(C(F)(F)F)ccc4F)c(F)c3)c3c(N)ncnn23)CC1` [Example 209, 4-{4-amino-5-[3-fluoro-4-({[2-fluoro-5-(trifluoromethyl)phenyl]carbamoyl}amino)phenyl]pyrrolo[2,1-f][1,2,4]triazin-7-yl}-N-methylpiperidine-1-carboxamide], the IC50 lay within 10 to 100 nM. To `Nc1ncnn2c(CCN3CCOCC3)cc(-c3cc(F)c(NC(=O)Nc4cc(C(F)(F)F)ccc4F)cc3F)c12` [Example 211, N-{4-[4-amino-7-(2-morpholin-4-ylethyl)pyrrolo[2,1-f][1,2,4]triazin-5-yl]-2,5-difluorophenyl}-N′-[2-fluoro-5-(trifluoromethyl)phenyl]urea] belongs 10 to 100 nM; to `Nc1ncnn2c(CCN3CCOCC3)cc(-c3ccc(NC(=O)Nc4cc(C(F)(F)F)ccc4F)c(F)c3)c12` [Example 212, N-{4-[4-amino-7-(2-morpholin-4-ylethyl)pyrrolo[2,1-f][1,2,4]triazin-5-yl]-2-fluorophenyl}-N′-[2-fluoro-5-(trifluoromethyl)phenyl]urea], 10 to 100 nM. To `CN1CCN(CCc2cc(-c3ccc(NC(=O)Nc4cc(C(F)(F)F)ccc4F)c(F)c3)c3c(N)ncnn23)CC1` [Example 214, N-(4-{4-amino-7-[2-(4-methylpiperazin-1-yl)ethyl]pyrrolo[2,1-f][1,2,4]triazin-5-yl}-2-fluorophenyl)-N′-[2-fluoro-5-(trifluoromethyl)phenyl]urea] belongs under 10 nM; to `COC[C@@H]1CCCN1CCc1cc(-c2ccc(NC(=O)Nc3cc(C(F)(F)F)ccc3F)c(F)c2)c2c(N)ncnn12` [Example 215, N-[4-(4-amino-7-{2-[2-(methoxymethyl)pyrrolidin-1-yl]ethyl}pyrrolo-[2,1-f][1,2,4]triazin-5-yl)-2-fluorophenyl]-N′-[2-fluoro-5-(trifluoromethyl)phenyl]urea], 10 to 100 nM; to `Nc1ncnn2c(CCN3CCCC3)cc(-c3ccc(NC(=O)Nc4cc(C(F)(F)F)ccc4F)c(F)c3)c12` [Example 216, N-{4-[4-amino-7-(2-pyrrolidin-1-ylethyl)pyrrolo[2,1-f][1,2,4]triazin-5-yl]-2-fluorophenyl}-N′-[2-fluoro-5-(trifluoromethyl)phenyl]urea], 10 to 100 nM. The result for `Nc1ncnn2c(CCCN3CCOCC3)cc(-c3ccc(NC(=O)Nc4cc(C(F)(F)F)ccc4Cl)c(F)c3)c12` [Example 217, N-{4-[4-amino-7-(3-morpholin-4-ylpropyl)pyrrolo[2,1-f][1,2,4]triazin-5-yl]-2-fluorophenyl}-N′-[2-chloro-5-(trifluoromethyl)phenyl]urea] reads 10 to 100 nM. As to `CC(=O)N1CCC(c2cc(-c3ccc(NC(=O)Nc4cc(C(F)(F)F)ccc4F)c(Cl)c3)c3c(N)ncnn23)CC1` [Example 219, N-{4-[7-(1-acetylpiperidin-4-yl)-4-aminopyrrolo[2,1-f][1,2,4]triazin-5-yl]-2-chlorophenyl}-N′-[2-fluoro-5-(trifluoromethyl)phenyl]urea], the half-inhibitory concentration (IC50) is under 10 nM. The compound `Nc1ncnn2c(CCO)cc(-c3ccc(NC(=O)Nc4cc(C(F)(F)F)ccc4F)c(F)c3)c12` [Example 220, N-{4-[4-amino-7-(2-hydroxyethyl)pyrrolo[2,1-f][1,2,4]triazin-5-yl]-2-fluorophenyl}-N′-[2-fluoro-5-(trifluoromethyl)phenyl]urea] registered an IC50 of under 10 nM. The result for `Cc1cc(-c2cc(CCCN3CCOCC3)n3ncnc(N)c23)ccc1NC(=O)Nc1cc(C(F)(F)F)ccc1F` [Example 221, N-{4-[4-amino-7-(3-morpholin-4-ylpropyl)pyrrolo[2,1-f][1,2,4]triazin-5-yl]-2-methylphenyl}-N′-[2-fluoro-5-(trifluoromethyl)phenyl]urea] reads under 10 nM. `Nc1ncnn2c(CCCCN3CCOCC3)cc(-c3ccc(NC(=O)Nc4cc(C(F)(F)F)ccc4F)c(F)c3)c12` [Example 224, N-{4-[4-amino-7-(4-morpholin-4-ylbutyl)pyrrolo[2,1-f][1,2,4]triazin-5-yl]-2-fluorophenyl}-N′-[2-fluoro-5-(trifluoromethyl)phenyl]urea] gave a concentration for half-maximal inhibition (IC50) of under 10 nM. The result for `Nc1ncnn2c(CCN3CCCOCC3)cc(-c3ccc(NC(=O)Nc4cc(C(F)(F)F)ccc4F)c(F)c3)c12` [Example 226, N-(4-{4-amino-7-[2-(1,4-oxazepan-4-yl)ethyl]pyrrolo[2,1-f][1,2,4]triazin-5-yl}-2-fluorophenyl)-N′-[2-fluoro-5-(trifluoromethyl)phenyl]urea] reads under 10 nM. The result for `CC(C)(C)c1ccnc(NC(=O)Nc2ccc(-c3cc(CCN4CCOCC4)n4ncnc(N)c34)cc2F)c1` [Example 228, N-{4-[4-amino-7-(2-morpholin-4-ylethyl)pyrrolo[2,1-f][1,2,4]triazin-5-yl]-2-fluorophenyl}-N′-(4-tert-butylpyridin-2-yl)urea] reads under 10 nM; that for `Nc1ncnn2c(C3CCN(C(=O)C4CC4)CC3)cc(-c3ccc(NC(=O)Nc4cc(C(F)(F)F)ccc4F)c(Cl)c3)c12` [Example 230, N-(4-{4-amino-7-[1-(cyclopropylcarbonyl)piperidin-4-yl]pyrrolo[2,1-f][1,2,4]triazin-5-yl}-2-chlorophenyl)-N′-[2-fluoro-5-(trifluoromethyl)phenyl]urea], 10 to 100 nM; that for `Nc1ncnn2c(C3CCN(C(=O)CN4CCOCC4)CC3)cc(-c3ccc(NC(=O)Nc4cc(C(F)(F)F)ccc4F)c(Cl)c3)c12` [Example 231, N-(4-{4-amino-7-[1-(morpholin-4-ylacetyl)piperidin-4-yl]pyrrolo[2,1-f][1,2,4]triazin-3-yl}-2-chlorophenyl)-N′-[2-fluoro-5-(trifluoromethyl)phenyl]urea], 10 to 100 nM. To `Nc1ncnn2c(C(=O)CO)cc(-c3ccc(NC(=O)Nc4cc(C(F)(F)F)ccc4F)c(F)c3)c12` [Example 234, N-[4-(4-amino-7-glycoloylpyrrolo[2,1-f][1,2,4]triazin-5-yl)-2-fluorophenyl]-N′-[2-fluoro-5-(trifluoromethyl)phenyl]urea] belongs 10 to 100 nM; to `Nc1ncnn2c(C3CCN(C4CC4)CC3)cc(-c3ccc(NC(=O)Nc4cc(C(F)(F)F)ccn4)c(F)c3)c12` [Example 235, N-{4-[4-amino-7-(1-cyclopropylpiperidin-4-yl)pyrrolo[2,1-f][1,2,4]triazin-5-yl]-2-fluorophenyl}-N′-[4-(trifluoromethyl)pyridin-2-yl]urea], 10 to 100 nM. Compound `Nc1ncnn2c(C3CCN(C(=O)CO)CC3)cc(-c3ccc(NC(=O)Nc4cc(C(F)(F)F)ccn4)c(F)c3)c12` [Example 236, N-{4-[4-amino-7-(1-glycoloylpiperidin-4-yl)pyrrolo[2,1-f][1,2,4]triazin-5-yl]-2-fluorophenyl}-N′-[4-(trifluoromethyl)pyridin-2-yl]urea] showed an IC50 of under 10 nM. Regarding `CC(=O)N1CCC(c2cc(-c3ccc(NC(=O)Nc4cc(C(F)(F)F)ccn4)c(F)c3)c3c(N)ncnn23)CC1` [Example 237, N-{4-[7-(1-acetylpiperidin-4-yl)-4-aminopyrrolo[2,1-f][1,2,4]triazin-5-yl]-2-fluorophenyl}-N′-[4-(trifluoromethyl)pyridin-2-yl]urea], the IC50 was under 10 nM. Compound `CN(C)CC(=O)N1CCC(c2cc(-c3ccc(NC(=O)Nc4cc(C(F)(F)F)ccc4F)c(Cl)c3)c3c(N)ncnn23)CC1` [Example 240, N-(4-{4-amino-7-[1-(N,N-dimethylglycyl)piperidin-4-yl]pyrrolo[2,1-f][1,2,4]triazin-5-yl}-2-chlorophenyl)-N′-[2-fluoro-5-(trifluoromethyl)phenyl]urea] had an IC50 of under 10 nM.

As usually defined, the IC50 is the midpoint of a concentration-inhibition curve. High values mean weaker potency, low ones greater potency.
